Measured values published in the NIST ThermoML archive (doi:10.1016/j.fluid.2006.07.013).
Numbers after ± are expanded uncertainties.

Assay: xn = mol fraction of the nth substance listed

## CC(C)COC(=O)CCCCC(=O)OCC(C)C [diisobutyl adipate] + O=C=O
294.75 K, Liquid, Volume and mass of phase, x1 = 0.11
  mass density: 807 ± 24 kg/m3
295.25 K, Liquid, Volume and mass of phase, x1 = 0.039
  mass density: 795 ± 24 kg/m3
298.95 K, Liquid, Volume and mass of phase, x1 = 0.11
  mass density: 805 ± 24 kg/m3
302.75 K, Liquid, Volume and mass of phase, x1 = 0.096
  mass density: 814 ± 24 kg/m3
304.65 K, Liquid, Volume and mass of phase, x1 = 0.11
  mass density: 805 ± 24 kg/m3
305.35 K, Gas, volume and mass of phase, x1 = 0.011
  mass density: 702 ± 21 kg/m3
305.75 K, Liquid, Volume and mass of phase, x1 = 0.039
  mass density: 764 ± 23 kg/m3
308.85 K, Liquid, Volume and mass of phase, x1 = 0.11
  mass density: 791 ± 24 kg/m3
310.35 K, Liquid, Volume and mass of phase, x1 = 0.064
  mass density: 793 ± 24 kg/m3
311.05 K, Gas, volume and mass of phase, x1 = 0.011
  mass density: 667 ± 20 kg/m3
311.25 K, Liquid, Volume and mass of phase, x1 = 0.161
  mass density: 865 ± 26 kg/m3
311.95 K, Liquid, Volume and mass of phase, x1 = 0.592
  mass density: 813 ± 24 kg/m3
312.15 K, Liquid, Volume and mass of phase, x1 = 0.282
  mass density: 853 ± 26 kg/m3
314.45 K, Liquid, Volume and mass of phase, x1 = 0.11
  mass density: 789 ± 24 kg/m3
316.85 K, Liquid, Volume and mass of phase, x1 = 0.039
  mass density: 739 ± 22 kg/m3
322.15 K, Liquid, Volume and mass of phase, x1 = 0.096
  mass density: 800 ± 24 kg/m3
322.55 K, Liquid, Volume and mass of phase, x1 = 0.11
  mass density: 791 ± 24 kg/m3
323.65 K, Liquid, Volume and mass of phase, x1 = 0.282
  mass density: 832 ± 25 kg/m3
329.95 K, Gas, volume and mass of phase, x1 = 0.011
  mass density: 639 ± 19 kg/m3
330.75 K, Liquid, Volume and mass of phase, x1 = 0.11
  mass density: 766 ± 23 kg/m3
332.65 K, Liquid, Volume and mass of phase, x1 = 0.039
  mass density: 732 ± 22 kg/m3
332.75 K, Liquid, Volume and mass of phase, x1 = 0.592
  mass density: 829 ± 25 kg/m3
337.45 K, Liquid, Volume and mass of phase, x1 = 0.282
  mass density: 821 ± 25 kg/m3
342.05 K, Liquid, Volume and mass of phase, x1 = 0.11
  mass density: 756 ± 23 kg/m3
343.35 K, Liquid, Volume and mass of phase, x1 = 0.064
  mass density: 762 ± 23 kg/m3
345.25 K, Liquid, Volume and mass of phase, x1 = 0.039
  mass density: 702 ± 21 kg/m3
347.35 K, Liquid, Volume and mass of phase, x1 = 0.096
  mass density: 768 ± 23 kg/m3
350.15 K, Liquid, Volume and mass of phase, x1 = 0.282
  mass density: 810 ± 24 kg/m3
351.35 K, Liquid, Volume and mass of phase, x1 = 0.592
  mass density: 819 ± 25 kg/m3
353.25 K, Liquid, Volume and mass of phase, x1 = 0.161
  mass density: 791 ± 24 kg/m3
356.25 K, Liquid, Volume and mass of phase, x1 = 0.11
  mass density: 740 ± 22 kg/m3
357.45 K, Gas, volume and mass of phase, x1 = 0.011
  mass density: 558 ± 17 kg/m3
357.75 K, Liquid, Volume and mass of phase, x1 = 0.039
  mass density: 675 ± 20 kg/m3
360.85 K, Liquid, Volume and mass of phase, x1 = 0.064
  mass density: 724 ± 22 kg/m3
363.05 K, Liquid, Volume and mass of phase, x1 = 0.282
  mass density: 800 ± 24 kg/m3
366.65 K, Liquid, Volume and mass of phase, x1 = 0.039
  mass density: 660 ± 20 kg/m3
369.85 K, Liquid, Volume and mass of phase, x1 = 0.096
  mass density: 731 ± 22 kg/m3
370.95 K, Liquid, Volume and mass of phase, x1 = 0.592
  mass density: 807 ± 24 kg/m3
371.25 K, Liquid, Volume and mass of phase, x1 = 0.11
  mass density: 723 ± 22 kg/m3
371.55 K, Liquid, Volume and mass of phase, x1 = 0.282
  mass density: 791 ± 24 kg/m3
376.85 K, Gas, volume and mass of phase, x1 = 0.039
  mass density: 638 ± 19 kg/m3
378.45 K, Gas, volume and mass of phase, x1 = 0.011
  mass density: 518 ± 16 kg/m3
380.95 K, Liquid, Volume and mass of phase, x1 = 0.161
  mass density: 760 ± 23 kg/m3
381.65 K, Liquid, Volume and mass of phase, x1 = 0.064
  mass density: 687 ± 21 kg/m3
383.95 K, Liquid, Volume and mass of phase, x1 = 0.282
  mass density: 776 ± 23 kg/m3
391.15 K, Liquid, Volume and mass of phase, x1 = 0.592
  mass density: 790 ± 24 kg/m3
392.25 K, Liquid, Volume and mass of phase, x1 = 0.096
  mass density: 696 ± 21 kg/m3
400.05 K, Gas, volume and mass of phase, x1 = 0.064
  mass density: 655 ± 20 kg/m3
400.55 K, Liquid, Volume and mass of phase, x1 = 0.282
  mass density: 760 ± 23 kg/m3
401.45 K, Gas, volume and mass of phase, x1 = 0.039
  mass density: 588 ± 18 kg/m3
401.65 K, Liquid, Volume and mass of phase, x1 = 0.11
  mass density: 681 ± 21 kg/m3
404.55 K, Gas, volume and mass of phase, x1 = 0.011
  mass density: 471 ± 14 kg/m3
408.05 K, Liquid, Volume and mass of phase, x1 = 0.161
  mass density: 721 ± 22 kg/m3
409.85 K, Liquid, Volume and mass of phase, x1 = 0.592
  mass density: 777 ± 23 kg/m3
419.65 K, Liquid, Volume and mass of phase, x1 = 0.282
  mass density: 740 ± 22 kg/m3
420.05 K, Liquid, Volume and mass of phase, x1 = 0.096
  mass density: 651 ± 20 kg/m3
421.25 K, Gas, volume and mass of phase, x1 = 0.064
  mass density: 617 ± 19 kg/m3
421.85 K, Liquid, Volume and mass of phase, x1 = 0.161
  mass density: 706 ± 21 kg/m3
423.15 K, Liquid, Volume and mass of phase, x1 = 0.592
  mass density: 772 ± 23 kg/m3
423.65 K, Liquid, Volume and mass of phase, x1 = 0.11
  mass density: 650 ± 20 kg/m3
424.65 K, Gas, volume and mass of phase, x1 = 0.039
  mass density: 541 ± 16 kg/m3
